Assay in all cases: NCI anticancer screen, dose series, 48 h
The test system of experiment [1] is UO-31 renal.
Experiment [2] relates to ACHN renal.
Experiment [3] has as its system MALME-3M melanoma.
In experiment [4] the test system is MOLT-4 leukemia.
Experiment [5] relates to DU-145 prostate.
In experiment [6] the test system is SF-539 CNS.
Experiment [7] deals with TK-10 renal.
Experiment [8] relates to SNB-75 CNS.

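Where inhibition never reached the appropriate level, the endpoint shown equals the highest concentration tested. Otherwise, values were interpolated linearly from a five-concentration, 48-hour dose response in 96-well plates. Abbreviation: GI50, concentration required for 50% inhibition of growth. TGI: concentration producing complete growth inhibition.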

Regarding `O=C1NC(=NCc2ccccc2Cl)S/C1=C\c1ccc2ncccc2c1`, the GI50 in experiment [1] was more than 13.6 µM; in experiment [2], 9.54 µM; in experiment [3] it was more than 20.7 µM; in experiment [4], more than 25 µM; in experiment [5] it was 11.2 µM; in experiment [6], 3.59 µM. In addition, the GI50 was 6.02 µM in experiment [7] and 0.785 µM in experiment [8]. Besides, the TGI in experiment [1], in experiment [2], in experiment [3], in experiment [4], in experiment [5] and in experiment [6] was more than 25 µM throughout. Besides, the results for the TGI in experiment [7] and in experiment [8] were more than 25 µM and more than 21.8 µM, respectively.

With `COc1cc(-c2cc(/C=C/C(=O)c3ccc(F)c(F)c3)[nH]n2)cc(OC)c1OC`, the GI50 in experiment [1] is 2.63 µM; in experiment [2], 3.26 µM; in experiment [3], 2.96 µM; in experiment [4], 2.72 µM; in experiment [6], 3.76 µM; in experiment [7], 2.29 µM. Further, the TGI in experiment [1] is 14.2 µM; in experiment [2] it was more than 100 µM; in experiment [3], 9.4 µM; in experiment [4], 9.09 µM; in experiment [6], 17.7 µM; in experiment [7], 7.41 µM.

In the case of `Cc1cc(=O)oc2ccc(OC/C=C3\CCC(=O)O3)cc12`, the GI50 in experiment [1] is 2.09 µM; in experiment [2] it was 0.936 µM; in experiment [3], 1.16 µM; in experiment [4], 3.05 µM; in experiment [5] it was 3.62 µM; in experiment [6], 7.95 µM. Moreover, the GI50 in experiment [7] was 1.61 µM; in experiment [8] it was 1.87 µM. Further, the TGI was 10.2 µM in experiment [1]; 2.14 µM in experiment [2]; 16.9 µM in experiment [3]; more than 100 µM in experiment [4]; 17.7 µM in experiment [5]; 25.5 µM in experiment [6]. Besides, the TGI in experiment [7] worked out at 9.23 µM; in experiment [8], 12.3 µM.

Consider `CCN1CCN(c2nc(C)cc(N(CCCNc3ccnc4cc(Cl)ccc34)Cc3ccc4c(c3)OCO4)n2)CC1`, for which the GI50 in experiment [1] is 1.31 µM; in experiment [2], 2.03 µM; in experiment [3], 1.77 µM; in experiment [4], 1.2 µM; in experiment [6] it was 1.63 µM; in experiment [7] it was 1.74 µM. In addition, in experiment [8], the GI50 is 1.48 µM. The TGI in experiment [1] turned out to be 2.64 µM; in experiment [2], 4.15 µM; in experiment [3], 3.34 µM; in experiment [4], 4.35 µM; in experiment [6] it was 3.07 µM; in experiment [7], 3.21 µM. The TGI in experiment [8] was determined as 3.1 µM.

With `COc1ccc2c(c1)OC(N)=C(C#N)C2c1cc(OC)c(OC)c(OC)c1` (stereo not given), the GI50 in experiment [1] is 0.433 µM; in experiment [2] it was 0.0691 µM; in experiment [3] it was 80.5 µM; in experiment [4], 0.0365 µM; in experiment [5], 0.0279 µM; in experiment [6], 0.0316 µM. The GI50 in experiment [8] was 0.0394 µM. The TGI in experiment [1] is more than 100 µM; in experiment [2], more than 100 µM; in experiment [3], more than 100 µM; in experiment [4] it was more than 100 µM; in experiment [5], 0.0802 µM; in experiment [6], 31.8 µM. The TGI in experiment [8] turned out to be 45.9 µM.

As to `COc1cc([N+](=O)[O-])c(OC)cc1-c1nc2sc(C)c(C)n2c1/C(N)=N/C(=N)N`, the GI50 in experiment [1], in experiment [2], in experiment [4], in experiment [5], in experiment [7] and in experiment [8] was more than 100 µM in each case. Moreover, the TGI in experiment [1], in experiment [2], in experiment [4], in experiment [5], in experiment [7] and in experiment [8] was more than 100 µM throughout.

For the molecule `NC(N)=N/N=C/c1c(-c2ccsc2)nc2n1CCS2`, the GI50 in experiment [1] was 65.5 µM; in experiment [2], 18.5 µM; in experiment [4], 15.3 µM; in experiment [6], 14.4 µM; in experiment [7], 26 µM. The TGI is more than 100 µM in experiment [1]; 46 µM in experiment [2]; 42.9 µM in experiment [4]; 30.3 µM in experiment [6]; 61.1 µM in experiment [7].

Turning to `O=C(CS(=O)(=O)c1nc2ccccc2nc1-c1ccccc1)Nc1ccc(F)cc1`, the GI50 in experiment [1] was 59.1 µM; in experiment [2], more than 100 µM; in experiment [3] it was 80.7 µM; in experiment [5], 36.1 µM; in experiment [6], 18.7 µM; in experiment [7] it was more than 100 µM. Moreover, the GI50 in experiment [8] is more than 100 µM. Further, the TGI is more than 100 µM in experiment [1]; more than 100 µM in experiment [2]; more than 100 µM in experiment [3]; more than 100 µM in experiment [5]; 60.2 µM in experiment [6]; more than 100 µM in experiment [7]. The molecule also showed a TGI in experiment [8] of more than 100 µM.

As to `O=C1Nc2ccc(Br)cc2C12CC(c1ccccc1)=NN2` (stereo not given), the GI50 in experiment [1] was 4.46 µM; in experiment [2] it was 7.96 µM; in experiment [3], 2.04 µM; in experiment [4] it was 5.04 µM; in experiment [5], 3.35 µM; in experiment [6] it was 2.1 µM. Also, the GI50 in experiment [8] is 1.35 µM. The TGI in experiment [1] is more than 100 µM; in experiment [2], more than 100 µM; in experiment [3], 6.93 µM; in experiment [4] it was 30.5 µM; in experiment [5] it was 16.4 µM; in experiment [6], 6.02 µM. In experiment [8], this molecule had a TGI of 6.91 µM.

Consider `CCOC(=O)CSc1cc(Cl)c(C)cc1S(=O)(=O)/N=C(/N=C/c1ccc([N+](=O)[O-])s1)NNC`, for which the GI50 in experiment [1] is 36.6 µM; in experiment [2], 17 µM; in experiment [3] it was 19.9 µM; in experiment [4], 16.7 µM; in experiment [5], 7.45 µM; in experiment [7], 23 µM. The TGI in experiment [1] was more than 100 µM; in experiment [2], 39.9 µM; in experiment [3], 55.3 µM; in experiment [4], 44.3 µM; in experiment [5], 41.2 µM; in experiment [7], 67.6 µM.

As to `Cc1ccccc1N=Nc1c(O)ccc2ccccc12`, the TGI in experiment [1], in experiment [2], in experiment [3], in experiment [4], in experiment [5] and in experiment [7] was more than 100 µM throughout. For the same molecule, the TGI in experiment [8] is more than 100 µM.

Turning to `COc1cccc(/C=C/C(=O)c2ccc3cc(OC)ccc3c2)c1`, the GI50 in experiment [1] was 9.25 µM; in experiment [5] it was 8.54 µM; in experiment [6], 7.95 µM; in experiment [7], 15.6 µM; in experiment [8], 0.066 µM. The TGI in experiment [1] turned out to be 19 µM; in experiment [5] it was 17.5 µM; in experiment [6], 16.8 µM; in experiment [7] it was 46.4 µM; in experiment [8], 14.6 µM.

With `COc1ccc(-c2cc(=O)c3c(O)c(OC)c(OC)c(OC)c3o2)cc1OC`, the TGI in experiment [1], in experiment [2], in experiment [3], in experiment [4], in experiment [5] and in experiment [6] was more than 100 µM each time. The TGI in experiment [7] is more than 100 µM.

For the molecule `CCOC(=O)c1c(-c2ccccc2)[n+](=O)c2cc(Cl)c(Cl)cc2n1[O-]`, the GI50 in experiment [1] is 3.03 µM; in experiment [2] it was 11.9 µM; in experiment [4], more than 100 µM; in experiment [5], 9.4 µM; in experiment [6], 15.5 µM; in experiment [7], 1.57 µM. Further, in experiment [8], the GI50 is 8.7 µM. Moreover, the TGI is more than 100 µM in experiment [1]; 24.2 µM in experiment [2]; more than 100 µM in experiment [4]; 22.9 µM in experiment [5]; 32 µM in experiment [6]; 4.07 µM in experiment [7]. Moreover, in experiment [8], the TGI is 30.2 µM.

`Clc1nccc2c(-c3csc(-c4c[nH]c5ccc(Br)cc45)n3)c[nH]c12`: the GI50 is 0.932 µM in experiment [1]; 2.02 µM in experiment [2]; 3.02 µM in experiment [4]; 1.76 µM in experiment [5]; 1.87 µM in experiment [6]; 4.16 µM in experiment [7]. Further, the GI50 in experiment [8] is 2.37 µM. Besides, the TGI was determined as 11.5 µM in experiment [1]; 12.6 µM in experiment [2]; 13.9 µM in experiment [4]; 14 µM in experiment [5]; 6.14 µM in experiment [6]; 13.4 µM in experiment [7]. This molecule yielded a TGI in experiment [8] of 10.9 µM.

As to `CC(=O)Nc1ccc(C(=O)CCl)cc1`, the GI50 in experiment [1] is 1.71 µM; in experiment [2], 1.8 µM; in experiment [4], 2.92 µM; in experiment [5] it was 9.19 µM; in experiment [6] it was 3.63 µM; in experiment [7], 2.82 µM. The GI50 in experiment [8] was 3.46 µM. The TGI came to 3.26 µM in experiment [1]; 3.29 µM in experiment [2]; 7.06 µM in experiment [4]; 21.2 µM in experiment [5]; 14.7 µM in experiment [6]; 7.71 µM in experiment [7]. The molecule further yielded a TGI in experiment [8] of 16 µM.

These data come from PubChem BioAssay (NCI).
